# US8501713B2, “Drug combinations for the treatment of duchenne muscular dystrophy” (Summit Corporation PLC, priority 2007, dated 2013)
# Tested on: Utrophin A promoter linked to a luciferase reporter gene
# Experiment: Luciferase reporter assay (murine H2K cells)
# Format: cell-based
# Settings: luciferase reporter assay in murine H2K cells; classified relative to control
# Summary of the method: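 Compound at 10 μM final was applied for 48 hrs to plated H2K mdx myoblasts (33° C, 10% CO2, interferon-containing medium) bearing a luciferase gene under the utrophin A promoter. Luminescence from lysed cells served as read-out.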
row,Structure (SMILES),Activity
1,O=C(Nc1ccc2c(c1)OCO2)c1sc2ccccc2c1Cl [Example 618],++++ (Above 401% relative to control)
2,COc1ccc(-c2nc3ccccc3o2)cc1N [Example 619],++++ (Above 401% relative to control)
3,Cc1ccc(-c2nc3ccccc3[nH]2)cc1N [Example 620],++++ (Above 401% relative to control)
4,O=C(Nc1ccccc1F)c1sc2ccccc2c1Cl [Example 621],++++ (Above 401% relative to control)
5,Nc1cccc(-c2nc3cc(Cl)ccc3o2)c1 [Example 622],++++ (Above 401% relative to control)
6,Cc1cc2nc(-c3cccc(NC(=O)c4ccco4)c3)oc2cc1C [Example 623],++++ (Above 401% relative to control)
7,CCc1ccc2oc(-c3ccc(C)c(N)c3)nc2c1 [Example 625],++++ (Above 401% relative to control)
8,O=C(Nc1nc2ccccc2s1)c1cc2ccccc2o1 [Example 626],++++ (Above 401% relative to control)
9,Cc1cc(C)c2oc(-c3ccc(Cl)c(N)c3)nc2c1 [Example 627],++++ (Above 401% relative to control)
10,Nc1c(C(=O)Nc2ccc(F)cc2)sc2nc3c(cc12)CCC3 [Example 628],++++ (Above 401% relative to control)
11,O=C(Nc1nc2ccc(F)cc2s1)c1ccccc1Br [Example 629],++++ (Above 401% relative to control)
12,COc1ccc2oc(-c3cccc(N)c3)nc2c1 [Example 630],++++ (Above 401% relative to control)
13,CCC(C)C(=O)Nc1ccc(-c2nc3ccccc3[nH]2)cc1 (stereo not shown) [Example 631],++++ (Above 401% relative to control)
14,Cc1ccc2[nH]c(-c3sc4nc(C)ccc4c3N)nc2c1 [Example 632],++++ (Above 401% relative to control)
15,c1ccc(OCc2nc3ccccc3s2)cc1 [Example 633],+++ (Between 301% and 400% relative to control)
16,CCn1c(C)nc2cc(-c3ccccc3)ccc21 [Example 634],+++ (Between 301% and 400% relative to control)
17,Cc1ccc2nc(-c3ccc(C)c(N)c3)oc2c1 [Example 635],+++ (Between 301% and 400% relative to control)
18,Cc1ccc2oc(-c3ccc(Cl)c(N)c3)nc2c1 [Example 636],+++ (Between 301% and 400% relative to control)
19,Cc1ccc(NC(=O)Nc2nc3ccccc3s2)cc1 [Example 637],+++ (Between 301% and 400% relative to control)
20,Cc1ccc2nc(-c3ccc(NC(=O)c4cccnc4)cc3)sc2c1 [Example 638],+++ (Between 301% and 400% relative to control)
21,c1ccc2nc(-c3nc4ccccc4s3)ccc2c1 [Example 639],+++ (Between 301% and 400% relative to control)
22,COc1ccc(CSc2nc3ccccc3[nH]2)cc1 [Example 640],+++ (Between 301% and 400% relative to control)
23,O=C(Nc1ccc(-c2nc3ncccc3o2)cc1)c1ccccc1Cl [Example 641],+++ (Between 301% and 400% relative to control)
24,CCc1ccc2oc(-c3cccc(NC(C)=O)c3)nc2c1 [Example 642],+++ (Between 301% and 400% relative to control)
25,Cc1ccc2nc(-c3ccc(O)cc3)sc2c1 [Example 643],+++ (Between 301% and 400% relative to control)
26,CCC(=O)Nc1cccc(-c2nc3cc(C)ccc3o2)c1 [Example 644],+++ (Between 301% and 400% relative to control)
27,COc1ccc(CSc2nc3ccccc3n2C)cc1F [Example 645],+++ (Between 301% and 400% relative to control)
28,Cc1cc2nc(-c3cc(N)ccc3Cl)oc2cc1C [Example 646],+++ (Between 301% and 400% relative to control)

row,Structure (SMILES),Activity
1,c1cc(NCc2ccncc2)cc(-c2nc3ccccc3s2)c1 [Example 647],+++ (Between 301% and 400% relative to control)
2,Cc1ccccc1C(=O)Nc1nc2ccccc2[nH]1 [Example 648],+++ (Between 301% and 400% relative to control)
3,Cc1cc(-c2nc3cc(N)ccc3o2)ccc1Br [Example 649],+++ (Between 301% and 400% relative to control)
4,Cc1cccc(NC(=O)c2sc3nc(C)cc(C)c3c2N)c1 [Example 650],+++ (Between 301% and 400% relative to control)
5,CC(C)C(=O)Nc1ccc(-c2nc3ccccc3s2)cc1 [Example 651],+++ (Between 301% and 400% relative to control)
6,Cc1ccc2nc(NC(=O)c3ccco3)sc2c1 [Example 652],+++ (Between 301% and 400% relative to control)
7,Nc1cc(-c2nc3ccccc3[nH]2)ccc1Cl [Example 653],+++ (Between 301% and 400% relative to control)
8,Cc1ccc2nc(-c3ccc(NC(=O)CSc4nnc[nH]4)cc3)sc2c1 [Example 654],+++ (Between 301% and 400% relative to control)
9,CC(=O)Oc1ccc(C(=O)Nc2ccc(-c3nc4ccccc4[nH]3)cc2)cc1 [Example 655],+++ (Between 301% and 400% relative to control)
10,Cc1cc2oc(C(=O)NCc3ccncc3)c(C)c2cc1C [Example 656],+++ (Between 301% and 400% relative to control)
11,CCOCC(=O)Nc1ccc(-c2nc3ccc(C)cc3s2)cc1 [Example 657],+++ (Between 301% and 400% relative to control)
12,O=C(Nc1nc2ccc(F)cc2s1)c1cccs1 [Example 658],+++ (Between 301% and 400% relative to control)
13,Cc1nn(-c2nc3ccccc3[nH]2)c(N)c1-c1ccccc1 [Example 659],+++ (Between 301% and 400% relative to control)
14,CCOCCC(=O)Nc1ccc(-c2nc3ccc(C)cc3s2)cc1 [Example 660],+++ (Between 301% and 400% relative to control)
15,O=C(Nc1ccc(-c2nc3ccccc3s2)cc1)C1CC1 [Example 661],+++ (Between 301% and 400% relative to control)
16,CC(=O)Nc1ccc(-c2nc3cc(C)ccc3o2)cc1 [Example 662],+++ (Between 301% and 400% relative to control)
17,Cc1ccc(NC(=O)C(=O)c2c[nH]c3ccccc23)c(Br)c1 [Example 663],+++ (Between 301% and 400% relative to control)
18,Cc1ccc2nc(-c3ccc(N)cc3)sc2c1 [Example 664],++ (Between 201% and 300% relative to control)
19,O=C(NCCc1ccccc1)c1cc2ccccc2o1 [Example 665],++ (Between 201% and 300% relative to control)
20,Cn1c(CNc2ccc(Cl)cc2)nc2ccccc21 [Example 666],++ (Between 201% and 300% relative to control)
21,CCC(=O)Nc1ccc(-c2nc3ccccc3s2)cc1 [Example 667],++ (Between 201% and 300% relative to control)
22,CCC(=O)Nc1ccc2oc(-c3cccc(C)c3)nc2c1 [Example 668],++ (Between 201% and 300% relative to control)
23,Cn1c(NC(=N)c2ccccc2)nc2ccccc21 [Example 669],++ (Between 201% and 300% relative to control)
24,Cc1ccc(C(=O)Nc2ccc3c(c2)ncn3C)cc1 [Example 670],++ (Between 201% and 300% relative to control)
25,O=C(Nc1nc2ccccc2s1)c1cc(Br)ccc1Cl [Example 671],++ (Between 201% and 300% relative to control)
26,Cc1ccc2nc(-c3ccc(NC(=O)c4cccs4)cc3)oc2c1 [Example 672],++ (Between 201% and 300% relative to control)
27,Nc1c(C(=O)Nc2ccccc2F)sc2nc3c(cc12)CCC3 [Example 673],++ (Between 201% and 300% relative to control)
